Experimental data from ChEMBL document CHEMBL5291721, “A preclinical secondary pharmacology resource illuminates target-adverse drug reaction associations of marketed drugs” (Nat Commun, 2023).

Experiments:
[1] = target: T1, Muscarinic acetylcholine receptor M1 (Homo sapiens, UniProt P11229); type: functional, cell-based
T1 sequence (P11229 whole entry): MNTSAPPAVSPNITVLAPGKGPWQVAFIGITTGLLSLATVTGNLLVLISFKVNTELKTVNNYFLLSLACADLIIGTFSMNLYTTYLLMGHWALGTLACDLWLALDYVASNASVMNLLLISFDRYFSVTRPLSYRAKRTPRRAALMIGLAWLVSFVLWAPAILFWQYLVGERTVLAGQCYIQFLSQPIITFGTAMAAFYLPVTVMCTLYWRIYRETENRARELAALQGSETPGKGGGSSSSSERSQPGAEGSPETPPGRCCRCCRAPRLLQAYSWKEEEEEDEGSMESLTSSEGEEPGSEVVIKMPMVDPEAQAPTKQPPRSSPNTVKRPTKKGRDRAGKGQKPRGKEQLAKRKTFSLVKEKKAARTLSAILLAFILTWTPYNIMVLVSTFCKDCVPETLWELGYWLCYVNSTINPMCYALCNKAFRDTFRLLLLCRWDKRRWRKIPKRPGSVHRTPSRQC

[2] = target: T1, Muscarinic acetylcholine receptor M1; type: functional, cell-based; remark: listed apart in the source
[3] = target: Sodium-dependent serotonin transporter (Homo sapiens, UniProt P31645)
Sequence of Sodium-dependent serotonin transporter (P31645 whole entry): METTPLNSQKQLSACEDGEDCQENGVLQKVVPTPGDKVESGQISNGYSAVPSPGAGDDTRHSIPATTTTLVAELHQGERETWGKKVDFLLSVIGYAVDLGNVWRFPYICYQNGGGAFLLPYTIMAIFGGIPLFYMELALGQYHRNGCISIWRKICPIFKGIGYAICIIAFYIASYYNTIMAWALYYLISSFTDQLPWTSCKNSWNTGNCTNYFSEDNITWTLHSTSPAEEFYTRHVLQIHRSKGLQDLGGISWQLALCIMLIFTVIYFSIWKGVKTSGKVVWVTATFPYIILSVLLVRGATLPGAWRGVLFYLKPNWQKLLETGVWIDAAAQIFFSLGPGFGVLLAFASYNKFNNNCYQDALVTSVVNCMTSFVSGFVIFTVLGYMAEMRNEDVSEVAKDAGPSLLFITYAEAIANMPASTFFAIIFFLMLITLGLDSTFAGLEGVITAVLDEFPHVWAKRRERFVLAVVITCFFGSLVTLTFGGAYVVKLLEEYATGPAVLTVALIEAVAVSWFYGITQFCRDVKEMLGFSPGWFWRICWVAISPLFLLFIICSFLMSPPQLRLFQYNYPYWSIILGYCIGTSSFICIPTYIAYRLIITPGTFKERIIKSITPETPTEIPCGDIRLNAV

[4] = target: T1, Muscarinic acetylcholine receptor M1; type: functional, cell-based; remark: listed apart in the source
[5] = target: T1, Muscarinic acetylcholine receptor M1; type: functional, cell-based; remark: listed apart in the source
[6] = target: T2, Muscarinic acetylcholine receptor M5 (Homo sapiens, UniProt P08912)
T2 sequence (P08912 whole entry): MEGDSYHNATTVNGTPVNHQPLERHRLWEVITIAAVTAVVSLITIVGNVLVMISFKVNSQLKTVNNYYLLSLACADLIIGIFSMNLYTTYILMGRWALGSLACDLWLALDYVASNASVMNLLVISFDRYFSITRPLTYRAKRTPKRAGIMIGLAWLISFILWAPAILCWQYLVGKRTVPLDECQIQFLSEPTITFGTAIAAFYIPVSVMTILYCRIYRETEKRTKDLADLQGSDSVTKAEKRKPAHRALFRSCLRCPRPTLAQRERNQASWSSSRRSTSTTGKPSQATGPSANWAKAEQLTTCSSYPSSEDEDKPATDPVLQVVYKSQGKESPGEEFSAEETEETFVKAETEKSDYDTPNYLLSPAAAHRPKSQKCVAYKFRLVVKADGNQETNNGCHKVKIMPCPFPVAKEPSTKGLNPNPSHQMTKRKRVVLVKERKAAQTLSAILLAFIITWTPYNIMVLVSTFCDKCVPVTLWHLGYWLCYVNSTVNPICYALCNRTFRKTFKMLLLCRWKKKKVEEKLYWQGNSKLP

D(4) dopamine receptor = target: T3, D(4) dopamine receptor (Homo sapiens, UniProt P21917)
T3 sequence (P21917 whole entry): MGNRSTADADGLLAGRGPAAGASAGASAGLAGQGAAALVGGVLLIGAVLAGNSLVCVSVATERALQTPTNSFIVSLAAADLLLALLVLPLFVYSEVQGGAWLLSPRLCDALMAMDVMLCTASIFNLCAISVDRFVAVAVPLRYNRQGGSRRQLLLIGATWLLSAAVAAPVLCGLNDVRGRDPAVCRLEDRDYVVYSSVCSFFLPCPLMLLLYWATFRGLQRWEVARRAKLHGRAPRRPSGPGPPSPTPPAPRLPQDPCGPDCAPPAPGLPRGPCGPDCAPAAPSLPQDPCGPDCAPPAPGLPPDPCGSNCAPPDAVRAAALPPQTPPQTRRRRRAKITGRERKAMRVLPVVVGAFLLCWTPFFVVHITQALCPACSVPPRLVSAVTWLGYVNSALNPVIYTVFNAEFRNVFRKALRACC

[7] = target: Gamma-aminobutyric acid type B receptor subunit 1 (Homo sapiens, UniProt Q9UBS5)
Sequence of Gamma-aminobutyric acid type B receptor subunit 1 (Q9UBS5 whole entry): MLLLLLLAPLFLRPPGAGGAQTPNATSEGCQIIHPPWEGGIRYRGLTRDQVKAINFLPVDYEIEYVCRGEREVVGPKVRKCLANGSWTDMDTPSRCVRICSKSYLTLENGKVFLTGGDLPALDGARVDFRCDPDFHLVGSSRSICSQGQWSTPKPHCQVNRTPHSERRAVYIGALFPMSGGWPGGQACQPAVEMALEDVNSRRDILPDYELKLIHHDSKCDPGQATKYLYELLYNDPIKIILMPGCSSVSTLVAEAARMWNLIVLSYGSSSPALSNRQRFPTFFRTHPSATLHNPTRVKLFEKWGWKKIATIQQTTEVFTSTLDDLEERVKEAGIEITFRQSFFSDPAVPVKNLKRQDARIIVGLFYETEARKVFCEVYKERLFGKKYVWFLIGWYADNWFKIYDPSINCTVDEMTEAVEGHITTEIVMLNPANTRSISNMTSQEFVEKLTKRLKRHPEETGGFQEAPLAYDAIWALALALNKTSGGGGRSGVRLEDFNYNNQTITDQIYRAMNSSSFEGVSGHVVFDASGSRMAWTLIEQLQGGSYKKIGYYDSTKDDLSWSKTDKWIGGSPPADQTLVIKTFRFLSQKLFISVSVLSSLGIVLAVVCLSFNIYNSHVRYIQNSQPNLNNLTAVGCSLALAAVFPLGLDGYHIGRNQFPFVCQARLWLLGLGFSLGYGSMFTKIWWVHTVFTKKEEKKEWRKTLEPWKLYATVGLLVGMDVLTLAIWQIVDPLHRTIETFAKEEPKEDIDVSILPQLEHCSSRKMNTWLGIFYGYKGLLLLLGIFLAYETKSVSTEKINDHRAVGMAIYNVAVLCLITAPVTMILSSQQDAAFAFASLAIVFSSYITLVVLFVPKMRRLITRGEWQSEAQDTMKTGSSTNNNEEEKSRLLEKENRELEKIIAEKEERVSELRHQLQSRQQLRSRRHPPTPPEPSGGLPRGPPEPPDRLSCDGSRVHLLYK

[8] = target: 5-hydroxytryptamine receptor 6 (Homo sapiens, UniProt P50406)
Sequence of 5-hydroxytryptamine receptor 6 (P50406 whole entry): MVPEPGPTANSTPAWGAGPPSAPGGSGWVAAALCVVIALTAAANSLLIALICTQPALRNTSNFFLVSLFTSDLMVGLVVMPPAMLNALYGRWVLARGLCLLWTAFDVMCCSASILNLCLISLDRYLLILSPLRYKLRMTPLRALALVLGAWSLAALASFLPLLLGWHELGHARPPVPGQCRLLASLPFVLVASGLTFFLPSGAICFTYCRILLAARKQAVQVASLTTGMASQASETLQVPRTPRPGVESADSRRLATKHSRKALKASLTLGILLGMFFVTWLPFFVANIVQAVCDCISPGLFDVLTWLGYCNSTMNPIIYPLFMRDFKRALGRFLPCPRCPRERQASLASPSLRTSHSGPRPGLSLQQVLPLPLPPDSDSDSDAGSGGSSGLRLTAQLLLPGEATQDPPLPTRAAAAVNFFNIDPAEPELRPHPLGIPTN

[9] = target: 5-hydroxytryptamine receptor 7 (Homo sapiens, UniProt P34969)
Sequence of 5-hydroxytryptamine receptor 7 (P34969 whole entry): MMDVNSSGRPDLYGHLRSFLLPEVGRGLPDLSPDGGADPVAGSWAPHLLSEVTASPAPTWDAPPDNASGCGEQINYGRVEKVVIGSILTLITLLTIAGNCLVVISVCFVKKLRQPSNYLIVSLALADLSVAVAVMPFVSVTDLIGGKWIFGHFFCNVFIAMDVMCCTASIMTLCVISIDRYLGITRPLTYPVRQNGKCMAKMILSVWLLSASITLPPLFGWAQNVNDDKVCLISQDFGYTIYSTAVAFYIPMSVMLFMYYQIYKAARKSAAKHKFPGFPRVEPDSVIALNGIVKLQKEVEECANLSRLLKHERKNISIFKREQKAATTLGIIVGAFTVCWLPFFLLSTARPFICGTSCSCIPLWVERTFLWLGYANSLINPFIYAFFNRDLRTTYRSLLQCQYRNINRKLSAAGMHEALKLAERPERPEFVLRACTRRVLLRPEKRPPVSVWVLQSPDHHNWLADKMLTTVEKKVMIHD

Substance-P receptor = Substance-P receptor (Homo sapiens, UniProt P25103)
Sequence of Substance-P receptor (P25103 whole entry): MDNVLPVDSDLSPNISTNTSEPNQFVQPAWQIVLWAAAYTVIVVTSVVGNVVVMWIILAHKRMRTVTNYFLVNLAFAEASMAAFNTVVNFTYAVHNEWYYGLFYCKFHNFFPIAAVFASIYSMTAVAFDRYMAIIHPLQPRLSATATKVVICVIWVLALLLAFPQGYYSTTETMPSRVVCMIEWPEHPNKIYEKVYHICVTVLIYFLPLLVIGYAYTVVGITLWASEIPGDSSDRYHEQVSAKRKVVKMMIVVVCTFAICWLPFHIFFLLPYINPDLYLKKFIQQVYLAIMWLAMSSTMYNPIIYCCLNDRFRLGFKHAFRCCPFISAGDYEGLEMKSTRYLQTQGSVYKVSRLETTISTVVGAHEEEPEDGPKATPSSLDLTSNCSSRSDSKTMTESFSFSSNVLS

[10] = target: T4, Alpha-1A adrenergic receptor (Homo sapiens, UniProt P35348)
T4 sequence (P35348 whole entry): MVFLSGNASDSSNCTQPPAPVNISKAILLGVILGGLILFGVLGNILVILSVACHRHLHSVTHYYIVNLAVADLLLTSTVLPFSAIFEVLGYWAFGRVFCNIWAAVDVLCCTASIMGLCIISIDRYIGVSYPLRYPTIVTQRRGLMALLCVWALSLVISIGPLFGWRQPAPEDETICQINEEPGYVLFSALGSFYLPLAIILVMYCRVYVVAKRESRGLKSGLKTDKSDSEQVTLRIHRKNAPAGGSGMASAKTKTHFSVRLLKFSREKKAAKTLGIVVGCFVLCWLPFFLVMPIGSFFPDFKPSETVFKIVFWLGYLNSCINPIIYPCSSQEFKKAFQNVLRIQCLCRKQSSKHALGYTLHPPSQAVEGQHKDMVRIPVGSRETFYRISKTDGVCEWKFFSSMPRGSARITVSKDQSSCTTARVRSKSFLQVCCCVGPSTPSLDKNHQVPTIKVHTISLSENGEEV
Further: assay procedure not described here.

## Nc1c2ccccc2nc2ccccc12 [AMINACRINE]
[1]
  AC50: > 30 µM
[2]
  AC50: 20.4 µM
[3]
  AC50: > 30 µM

## C[N@+]1(CCF)[C@@H]2CC[C@H]1C[C@@H](OC(=O)C(O)(c1ccccc1)c1ccccc1)C2
[4]
  AC50: > 30 µM
[5]
  AC50: 0.0005 µM

## Cn1c(=O)cc(N2CCC[C@@H](N)C2)n(Cc2ccccc2C#N)c1=O [ALOGLIPTIN]
[6]
  AC50: > 10 µM
D(4) dopamine receptor
  AC50: > 10 µM
[7]
  AC50: > 10 µM
[8]
  AC50: > 10 µM
[9]
  AC50: > 10 µM
Substance-P receptor
  AC50: > 10 µM
[10]
  AC50: > 10 µM
